Patent US10414721B1, “Inhibitor of endocannabinoid cellular reuptake” (University of Bern, priority 2018, dated 2019)

How the values were obtained:
[1] = tested on: AEA uptake in U937 cells; test: AEA uptake inhibition in U937 cells; assay type: cell-based
Procedure: Based on the natural product (2E,4E)-N-isobutylamidedodeca-2,4-dienamide from the medicinal plant E. purpurea as a starting point, a library of 634 of analogs and derivatives with varying alkyl chain length was synthesized, and structure of the head group moiety analyzed. All new derivatives were tested for AEA uptake inhibition in U937 cells using a high-content screening assay.
(§1) All radioactivity-based AEA and 2-AG uptake and release assays performed in U937, and HMC-1 cells were carried out using two different assay formats as previously reported. AEA and 2-AG uptake assay in Neuro2a and primary mouse cortical neurons were performed with a different method disclosed in Chicca 2017.

[2] = tested on: AEA uptake in primary mouse cortical neurons; test: AEA uptake in primary mouse cortical neurons; assay type: cell-based; conditions: Cortical neurone
Procedure: as §1

[3] = biological target: FAAH (Homo sapiens, UniProt O00519); test: FAAH activity / AEA hydrolysis assay; assay type: biochemical; conditions: human recombinant enzyme, cell and brain homogenates; read-out: IC50 for AEA hydrolysis (FAAH) inhibition
FAAH, sequence (O00519 whole entry): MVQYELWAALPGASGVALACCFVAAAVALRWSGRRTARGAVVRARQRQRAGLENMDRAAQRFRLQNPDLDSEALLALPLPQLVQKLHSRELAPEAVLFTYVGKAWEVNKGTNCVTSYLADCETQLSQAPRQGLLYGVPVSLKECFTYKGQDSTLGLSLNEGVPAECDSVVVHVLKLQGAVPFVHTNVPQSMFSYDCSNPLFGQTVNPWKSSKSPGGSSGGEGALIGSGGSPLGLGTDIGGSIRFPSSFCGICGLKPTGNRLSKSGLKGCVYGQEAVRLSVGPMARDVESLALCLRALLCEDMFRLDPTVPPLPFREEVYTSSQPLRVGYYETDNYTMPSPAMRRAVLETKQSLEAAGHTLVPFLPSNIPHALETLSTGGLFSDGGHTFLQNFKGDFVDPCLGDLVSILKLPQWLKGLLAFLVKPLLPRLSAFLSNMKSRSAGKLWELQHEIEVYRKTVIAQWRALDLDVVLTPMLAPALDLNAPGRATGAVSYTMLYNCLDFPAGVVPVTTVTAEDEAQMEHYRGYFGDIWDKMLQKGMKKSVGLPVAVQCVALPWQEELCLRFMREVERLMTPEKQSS
Procedure: (§2) FAAH, ABHDs, MAGL and COX-2 activity assays were performed using cell homogenates, human recombinant enzymes and mouse, rat and pig brain homogenates as previously described.

[4] = biological target: T1, ABHD12 (Mus musculus, UniProt Q99LR1); test: ABHD12 activity (ABPP and radioactivity-based hydrolytic assays); assay type: biochemical; conditions: ABPP in mouse brain homogenate and hydrolytic assays
T1 construct: membrane preparations obtained from mouse brains; from tissue; host or cells: mouse brain membranes
T1 sequence (Q99LR1 whole entry): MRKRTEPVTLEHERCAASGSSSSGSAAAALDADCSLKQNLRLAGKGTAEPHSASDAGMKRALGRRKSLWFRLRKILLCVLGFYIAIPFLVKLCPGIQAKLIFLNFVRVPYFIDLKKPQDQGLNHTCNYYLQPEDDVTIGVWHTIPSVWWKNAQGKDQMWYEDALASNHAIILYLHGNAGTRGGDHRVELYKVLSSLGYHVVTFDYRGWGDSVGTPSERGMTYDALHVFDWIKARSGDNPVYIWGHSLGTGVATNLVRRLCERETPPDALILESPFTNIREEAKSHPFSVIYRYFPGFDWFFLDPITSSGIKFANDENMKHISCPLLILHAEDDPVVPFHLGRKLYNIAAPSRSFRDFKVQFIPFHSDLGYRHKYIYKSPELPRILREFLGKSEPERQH
Procedure: ABPP experiments were performed using membrane preparations obtained from mouse brains as described earlier.
as §2

[5] = tested on: 45 CNS-related receptors; test: CNS adverse drug reaction screening panel (CEREP); assay type: binding; conditions: including cannabinoid receptors
Procedure: CB1 and CB2 receptor binding assays [^35S]GTPγS assays were performed as previously described. WOBE437 was profiled in more detail in an extended CNS adverse drug reaction screening panel (CEREP).

[6] = tested on: BALB/c mice; test: Acetic acid-induced writhing test; assay type: in vivo, mouse; conditions: 5 and 10 mg/kg
Procedure: (§3) WOBE437 was initially assessed in a battery of four individual tests typically associated with CB1 receptor activation in mice (nociception, locomotion, body temperature and cataleptic behavior), collectively referred to as the “tetrad”. Dose-response experiments identified 10 mg/kg as the lowest dose to elicit a moderate but complete tetrad in BALB/c mice upon intraperitoneal (i.p.) administration (FIGS. 3A-D). […] To assess whether the WOBE437-induced effects were CB1 receptor-mediated, mice were pre-treated with the selective antagonist/inverse agonist rimonabant (SR1). […] These experiments provided a proof-of-concept for the mechanism of action of WOBE437 as a novel “indirect CB1 receptor agonist”. In subsequent studies, the effects of WOBE437 in pain, inflammatory and anxiety models were investigated. […] Both effects were reversed by SR1.
(§4) WOBE437 and RX-055 were tested in independent laboratories, in different mouse strains and in multiple (behavioral) models for cannabimimetic, analgesic, anti-inflammatory and anxiolytic-effects in wild-type and phenotypical CB1-KO mice as described in Chicca 2017.

[7] = tested on: C57BL6/N mice; test: Holeboard (HB) test; assay type: in vivo, mouse; conditions: 3 mg/kg, 1 h post injection
Procedure: as §3, §4

[8] = LC-MS/MS quantification of WOBE437 in tissues after i.p. injection; assay type: in vivo, mouse; design: highest concentration in brain: unit not given here
Procedure: In order to investigate whether there was a link between the in vivo pharmacological effects of WOBE437 and the inhibition of EC uptake in vitro, the levels of WOBE437, AEA, 2-AG and related lipids in different tissues were quantified by LC-MS/MS. […] The Cbrain/Cplasma ratio (Kp) of WOBE437 was 0.65 after 5 min, 1.64 after 15 min and reached 1.9 after 30 and 60 min (FIGS. 4A and 4E). The peak concentration of WOBE437 in the brain was 780±267 nM, thus being in line with the bioactive concentrations determined in cellular assays. […] Only at 15 min post-injection, WOBE437 prevented the moderate increase of 2-AG induced by DMSO (FIG. 4C). […] On the contrary, 2-AG levels increased 1.7-fold compared to vehicle at 1 h post-injection (FIG. 4G). […] Repeated administrations of WOBE437 led to a significant 3-fold increase of corticosterone in the brain, which mirrors the changes observed in plasma (FIG. 4H). In peripheral organs, WOBE437 reached peak concentrations of 5-20 nmol/g tissue, without any signs of accumulation over 7 days. […] However, EC concentrations were not affected by repeated administrations of WOBE437 in peripheral tissues. Again, corticosterone levels were increased in spleen, liver and kidney.
WOBE437, AEA, 2-AG, other lipids and hormones were quantified by LC-MS/MS in different biological matrices (cells, human whole blood, rodent tissues) as reported in Chicca 2017.

[9] = tested on: BALB/c male mice; test: Tetrad test after oral administration; assay type: in vivo, mouse; conditions: 50 mg/kg p.o.
Procedure: The tetrad test was performed in the following order: rectal temperature, catalepsy, locomotion and analgesia. Rectal temperature was measured before (basal) and 1 h post gavage administration by using a thermocouple probe (Physitemp Instruments Inc., USA) and results were reported as the difference (Δ) between both temperatures. The bar test was used to evaluated catalepsy by placing the mouse in an imposed position with both forelimbs resting on a bar of 4 cm high; the end point of catalepsy was considered when both front limbs were removed or remained over 120 s. Locomotor activity was determined by placing the mouse on a rotarod (Erweka, Germany) at 4 rpm, the latency to fall was measured with a cut-off time of 120 s. Each mouse was previously trained to walk over the rotarod for at least 120 s. Catalepsy and locomotion were measured in three trials. Analgesia was evaluated with the hot plate test, each mouse was placed in a 54-56° C. hot plate (Thermo Scientific, USA) with a Plexiglas cylinder, the latency to first nociceptive response (paw lick or foot shake) was measured.

[10] = tested on: BALB/c mice; test: Open field test in monoarthritic mice; assay type: in vivo, mouse
Procedure: Potential motor changes were evaluated in an open field box (40×40×30 cm, Plexiglas). The mice were individually placed in the center and allowed to move freely for 5 min. The locomotion activity was recorded with the OpenFieldTest© and traveled distance was evaluated automatically. After every experiment, the box was cleaned with 70% ethanol to remove odors.

CCCCCCC/C=C/C=C/C(=O)NCCc1ccc(OC)c(OC)c1 [WOBE437, (2E,4E)-N-[2-(3,4-Dimethoxyphenyl)ethyl]dodeca-2,4-dienamide]
residual AEA and 2-AG reuptake upon treatment [1]: 20-30% | selectivity for AEA uptake over FAAH / AEA hydrolysis [1]: 1000 fold | IC50 ([1]; Homo sapiens, U-937, U937 cells, 100 nM total AEA): 10 ± 8 nM | Hill slope, AEA uptake ([1]; U937 cells, multiphase AEA uptake assay): −0.715 | type of AEA uptake inhibition (Michaelis-Menten analysis) ([1]; intact U937 cells): competitive | reversibility of AEA uptake inhibition ([1]; rapid dilution assay): reversible | inhibition at 1 µM ([2]; 2-7 min of incubation): 50% | inhibition at 1 µM ([2]; 10-20 min of incubation): 20 to 35% | IC50 [3]: ≥ 10000 nM | inhibition of ABHD12 [4]: did not inhibit | interaction with 45 CNS-related receptors [5]: did not exhibit any significant interaction | abdominal stretches in the acetic writhing test [6]: reduced number of abdominal stretches | head dipping frequency [7]: significantly increased | peak concentration in the brain ([8]; 10 mg/kg i.p.): 780 ± 267 nM | peak concentrations in peripheral organs ([8]; 10 mg/kg i.p.): 5-20 nmol/g tissue | peak plasma concentration ([8]; 10 mg/kg i.p.): 492±103 | time of highest brain concentration ([8]; 10 mg/kg i.p.): 30 min | time of peak plasma concentration ([8]; 10 mg/kg i.p.): 15 min | brain concentration ([8]; 10 mg/kg i.p., 1 h): 652±165 pmol/g brain | Cbrain/Cplasma ratio (Kp) ([8]; 10 mg/kg i.p., after 15 min): > 1 | highest concentration in brain ([8]; 10 mg/kg i.p., after 30 min): 919±314 | concentration at 1 h ([8]; mouse, brain, ip, 1 h after a single injection, 10 mg/kg i.p., read-out: estimated brain concentration): 555 nM | concentration at 7 days ([8]; mouse, brain, ip, after 7 days of treatment, 10 mg/kg i.p. daily, read-out: estimated brain concentration): 926 nM | Kp at 1 h ([8]; mouse, brain/plasma, ip, 10 mg/kg, 10 mg/kg i.p., after 30 and 60 min, read-out: Cbrain/Cplasma ratio (Kp)): 1.9 | Kp at 5 min ([8]; mouse, brain/plasma, ip, 10 mg/kg, 10 mg/kg i.p., after 5 min, read-out: Cbrain/Cplasma ratio (Kp)): 0.65 | Kp at 0.25 h ([8]; mouse, brain/plasma, ip, 10 mg/kg, 10 mg/kg i.p., after 15 min, read-out: Cbrain/Cplasma ratio (Kp)): 1.64 | half-life ([8]; mouse, plasma, ip, 10 mg/kg i.p.): 3.38 h | antinociception in tetrad [9]: significant antinociception | body temperature, catalepsy or motor coordination vs vehicle [9]: No statistical differences | latency of catalepsy ([9]; 1 h, control 5.9±5.4): 10.5 ± 10.6 s | change in body temperature ([9]; 1 h, control +0.1±0.8): −0.8±0.8 °C | spontaneous motor activity [10]: without significant observable changes
